In patent publication US11413255B2, “Multifunctional cytoprotectant for treatment of pathogenic processes mediated by oxidative stress and toxic electrophiles” (Montefiore Medical Center, priority 2015, dated 2022):
Entries after “also recorded” stand apart in the source; their conditions may differ. Read-outs that look alike come from different tables or passages of the source.

Assays:
[1] = pKa and % anion at physiological pH; conditions: for % in the carbanion / ionized nucleophilic state: physiological / cellular pH
[2] = test system: APAP-exposed hepatocytes; experiment: Hepatocyte rescue: protectant added 2 hrs after APAP; type: cell-based, mouse
[3] = test system: isolated hepatocytes exposed to graded APAP; experiment: Isolated hepatocytes, fixed protectant and graded APAP concentrations; type: cell-based, mouse
Source text: FIG. 8A-8B. […] Data are expressed as mean percent of control±SEM and *indicates p<0.05.

[4] = In chemico prevention of thiol (GSH) depletion by acrolein; type: biochemical; conditions: FIG. 2B
[5] = test system: raloxifene-exposed hepatocytes; experiment: Raloxifene-induced hepatocyte toxicity; conditions: for protection against raloxifene: at 150 μM
[6] = test system: APAP-exposed isolated mouse liver cells (hepatocytes); experiment: Viability of APAP-exposed isolated mouse hepatocytes, graded protectant concentrations; type: cell-based; conditions: read-out: EC50 (cytoprotection)
[7] = test system: APAP-intoxicated mice; conditions: for hepatoprotection in APAP-intoxicated mice, i. p. administration: i. p. 20 mins prior to APAP, THA 0.20-0.80, PG 0.40-2.40, 4-NAHA 0.04-0.08 mmol/kg; for hepatoprotection in APAP-intoxicated mice, oral administration: THA and PG 0.80-2.40, 4-NAHA 0.04-0.12, NAC 1.60-2.40 mmol/kg
Source text: Survival curves, THA and PG i. p. administration.
Survival curves, THA and PG oral administration.
Survival curves, 4-NAHA i. p. and oral administration.

[8] = test system: raloxifene-exposed hepatocytes
[9] = test system: mice
[10] = physchem
[11] = test system: cell culture models of oxidative stress and electrophile (acrolein) toxicity; conditions: cited from earlier work
[12] = test system: mice; conditions: cited from earlier work
[13] = test system: carbon tetrachloride-induced hepatotoxicity in mice; conditions: 0.032 mmol/kg p. o.; carbon tetrachloride 0.5 ml/kg i. p.; cited from earlier work
[14] = In chemico prevention of thiol (GSH) depletion by NAPQI; type: biochemical; conditions: FIG. 2A
[15] = Computational data on THA analogues: pKa and % anion; type: physicochemical
Source text: Computational Data on THA Analogues:

[16] = 0.25 mM protectant, APAP 1.0 mM
[17] = 0.25 mM protectant, APAP 0.25-5.0 mM×4 hrs
[18] = 1.0 mM protectant, APAP 0.25-5.0 mM×4 hrs
[19] = 0.25 mM protectant, highest APAP concentration 5.0 mM

| SMILES | % Anion (pH 7.4) [1] [%] | effect on viability, protectant added 2 hrs post-APAP [2, 16] | effect on viability, protectant added 2 hrs post-APAP ([2]; 1.0 mM protectant) | cytoprotection (viability) [3, 17] | toxicity measures (ALT appearance, mitochondrial membrane potential) ([3]; 1.0 mM protectant) | cytoprotection (viability) [3, 18] | protection against raloxifene [5] | EC50 ([6]; Mus musculus, Hepatocyte, 4 h) [µM] | hepatoprotection in APAP-intoxicated mice, oral administration [7] | other results |
| --- | --- | --- | --- | --- | --- | --- | --- | --- | --- | --- |
| CC(=O)C1CCCC1=O (stereo not drawn) [2-ACP, 2-acetylcyclopentanone] | 28.0 | ineffective | truncated the rapid decline in viability | neither 2-ACP nor NAC provided cytoprotection beyond the lowest APAP concentration | return toward normalization of the toxicity indices | partial cytoprotection | partial protection | ~1000 |  | effect on viability, protectant added 2 hrs post-APAP ([2]; 5 mM protectant, APAP 1.0 mM): promoted recovery of APAP-exposed hepatocytes; prevention of acrolein-induced thiol (GSH) depletion [4]: better GSH protection from acrolein than THA or PG |
| CC(=O)c1cc(O)c(C(C)=O)c(O)c1 [4-NAHA, 4-acetyl-2,6-dihydroxy acetophenone] |  |  |  |  |  |  | fully protective |  | effective over a broader dose-range | hepatoprotection ([7]; i. p. 0.04 mmol/kg): ineffective; hepatoprotection ([7]; i. p. 0.08 mmol/kg): significant hepatoprotection; hepatoprotection in APAP-intoxicated mice, i. p. administration [7]: dose-dependent protection; hepatoprotection ([7]; oral 0.04 mmol/kg): ineffective; hepatoprotection ([7]; oral 0.12 mmol/kg, lethality significantly delayed): partially protective; relative ability to prevent raloxifene-induced hepatocyte toxicity [8]: superior protection; delayed toxicity ([9]; all doses tested, 7 days): did not cause delayed toxicity; acute toxicity ([9]; doses 0.04-0.12 mmol/kg): not acutely toxic; EC50 ([6]; APAP 1.0 mM, 4 hrs, protectant 0.010-5.0 mM): 6 µM |
| CC(=O)N[C@@H](CS)C(=O)O [NAC, N-acetyl cysteine] | 0.80 | ineffective | truncated the rapid decline in viability | neither 2-ACP nor NAC provided cytoprotection beyond the lowest APAP concentration | return toward normalization of the toxicity indices | partial cytoprotection | partial protection | ~1000 | effective APAP antidote only when administered orally | effect on viability, protectant added 2 hrs post-APAP ([2]; 5 mM protectant, APAP 1.0 mM): promoted recovery of APAP-exposed hepatocytes |
| Oc1cc(O)cc(O)c1 [PG, 1,3,5-trihydroxybenzene] | 7.40 | arrested the progression of APAP-induced toxicity | complete restoration of viability | fully protective up to the 1.0 mM APAP concentration |  | full hepatocyte protection irrespective of APAP concentration |  | ~90 |  | % in the carbanion / ionized nucleophilic state [1]: 7%; cytoprotection (viability) [3, 19]: only partial cytoprotection; pKa [10]: 8.45 |
| O=C(CCc1ccc(O)cc1)c1c(O)cc(O)cc1O [Phloretin, phloretin] | 55.0 |  |  |  |  |  |  |  |  | hepatoprotection ([7]; i. p. 0.200 mmol/kg, APAP 500 mg/kg p. o.): marginal hepatoprotection; effect of higher concentrations ([11]; above the protective range): cytotoxic; concentrations giving significant cytoprotection ([11]; several cell culture models): 100 to 250 µM; lethality when administered alone ([9]; 0.40-2.40 mmol/kg, administered alone): associated with lethality |
| CC(=O)c1c(O)cc(O)cc1O [THA, 2′,4′,6′-trihydroxyacetophenone] | 33.0 | partial recovery of viability | complete restoration of viability | fully protective up to the 1.0 mM APAP concentration | normal | full hepatocyte protection irrespective of APAP concentration | fully protective | ~90 | dose-dependent hepatoprotection; also recorded: dose-dependent protection | hepatoprotection in APAP-intoxicated mice, i. p. administration [7]: dose-dependent (0.20-0.80 mmol/kg) hepatoprotection; pKa [1]: 7.7; % in the carbanion / ionized nucleophilic state [1]: approximately 33%; cytoprotection (viability) [3, 19]: preserved cell viability; prevention of acrolein-induced thiol (GSH) depletion [4]: better thiol protection than PG; relative ability to prevent raloxifene-induced hepatocyte toxicity ([5]; FIG. 10 legend): superior protection; lethality associated with the i. p. doses ([9]; i. p. doses of FIG. 3): No lethality; oral LD50 mice [12]: 3.20 gm/kg; prevention of carbon tetrachloride-induced hepatotoxicity [13]: completely prevent; prevention of NAPQI-induced thiol (GSH) depletion [14]: better thiol protection than PG; also recorded: better protection against NAPQI-induced GSH loss; pKa [10]: 7.75 |
| O=C(CCc1ccc(O)cc1)c1c(O)cc(O)cc1O [drawing 21] |  |  |  |  |  |  |  |  |  | % Anion (pH = 7.4) [15]: 56% |
| Oc1cc(O)cc(O)c1 [drawing 24] |  |  |  |  |  |  |  |  |  | % Anion (pH = 7.4) [15]: 07%; pKa ([15]; values without * (not estimates)): 8.5 |
| O=C(c1ccc(OCCN2CCCCC2)cc1)c1c(-c2ccc(O)cc2)sc2cc(O)ccc12 [raloxifene, reference compound] |  |  |  |  |  |  |  |  |  | concentration producing hepatocyte toxicity ([5]; raloxifene exposure): 75 µM |
